From patent US20170049676A1, “TOPICAL COMPOSITION” (Conopco, Inc., d/b/a UNILEVER, priority 2014, published 2017)
Like-named read-outs stand apart in the source and are kept apart here.

Assays:
[1] = system: heme oxygenase 1 (HO-1); assay: Heme oxygenase 1 (HO-1) ELISA on lysates of adult fibroblasts treated with isothiocyanates (Example 2); type: cell-based; conditions: primary human adult dermal fibroblast cells; for HO-1 (pg HO-1 per μg protein): 24 hours, vehicle control 179 ± 28; for production of HO-1 (in words): either at 1 or 2 μM
Protocol: Primary human adult dermal fibroblast cells were routinely cultured and passaged in Dulbecco's Modified Eagle Medium (DMEM) supplemented with 10% foetal bovine serum (FBS), known as complete medium. Cells were plated out in 12-well tissue culture plates at a seeding density of 20,000 cells per well in 1 ml of low serum medium (DMEM supplemented with 1% FBS) and incubated at 37° C. in 5% CO2 for 96-120 hours before addition of the test samples.
The isothiocynates (all from Sigma-Aldrich Company) sulforaphane, allyl isothiocyanate (AITC), alpha-naphthyl isothiocyanate (NITC), phenethyl isothiocyanate (PEITC) and benzyl isothiocyanate (BITC) were prepared in dimethyl sulphoxide (DMSO) and diluted in DMEM supplemented with 1% FBS to a final concentration of 1 uM and 2 uM. Dermal fibroblasts were treated with 1 ml/well of the test samples for a period of 24 hours. A solvent vehicle was included in each experimental plate.
After 24 hours the cell monolayer was washed with 1 ml of Dulbecco's Phosphate Buffered Saline (DPBS) per well and lysed with 400 μl of RIPA cell lysis buffer per well. The RIPA cell lysis buffer consisted of 150 mM NaCl, 1% v/v Nonidet-P40 (Igepal CA603 from Fluke 56741), 0.1% w/v sodium dodecyl sulphate (SDS) and 0.1% w/v sodium deoxycholate in 50 mM Tris-HCL buffer at pH 7.6. Protease inhibitor tablets were added to the lysis buffer immediately prior to use, at the manufacturer's recommended level. The plates received one freeze thaw cycle to ensure complete cell lysis. The lysates were subsequently clarified by scraping the samples off the plates with a pipette tip, centrifuging at 13,000 rpm for 10 minutes and transferring the supernatant into a 96 well microtitre plate. The clarified lysates were stored at −20° C. until needed.
The heme oxygenase 1 (HO-1) protein concentration of each cell lysate was assayed using the Human HO-1 ELISA Kit from Assay Designs (ADI-EKS-800, Enzo Life Sciences, UK) according to the manufacturer's instructions. Briefly, […] were diluted 1 in 10 in sample diluent, and 100 μl transferred to the pre-coated anti-HO-1 immunoassay plate. A 7-point recombinant HO-1 standard curve, ranging from 25 to 0.39 ng/ml, was also prepared in sample diluent. The immunoassay plate was incubated at room temperature for 30 minutes, washed six times with Wash Buffer, and incubated for a further 60 minutes at room temperature with 100 μl/well of anti-HO-1 antibody solution. The plate was washed as above and incubated for 30 minutes at room temperature with 100 μl/well of horseradish peroxidase (HRP)-conjugate solution. Again the plate was washed as above and 100 μl/well of 3,3′,5,5′-tetramethylbenzidine (TMB)-substrate added to each well for 15 minutes at room temperature in the dark. Following the addition of 100 μl/l well of stop solution, the absorbance was read at 450 nm on a microplate reader (Dynex MRX) and the unknown lysate levels of HO-1 were extrapolated from the standard curve. […]

[2] = system: primary human neonatal dermal fibroblast cells
[3] = system: heme oxygenase 1 (HO-1); assay: Heme oxygenase 1 (HO-1) ELISA on lysates of fibroblasts treated 24 hours, normalised to total protein (Example 1); type: cell-based, human; conditions: 8.4 mM controls
Protocol: Primary human neonatal dermal fibroblast cells were cultured and passaged in Dulbecco's Modified Eagle Medium (DMEM) supplemented with 10% foetal bovine serum (FBS), known as complete medium. Cells were routinely plated out in 24-well tissue culture plates at a seeding density of 40,000 cells per well in 1 ml complete medium, and incubated at 37° C. in 5% CO2 for 48 hours before addition of the test solutions.
After removal and storage of the tissue culture supernatant, the cell monolayer was washed with 1 ml of Dulbecco's Phosphate Buffered Saline (DPBS) per well and lysed with 200 μl cell lysis buffer per well. The cell lysis buffer consisted of 0.5% w/w Triton™ X100 (octyl phenol ethoxylate) and 1 mM ethylenediaminetetraacetic acid (EDTA) in phosphate buffer solution (PBS) at pH 7.2. Protease inhibitor tablets were added to the lysis buffer immediately prior to use, at the manufacturer's recommended level. The plates received one freeze thaw cycle to ensure complete cell lysis. The lysates were subsequently clarified by scraping the samples off the plates with a pipette tip and passing them through an Acrowell™ filter plate (Pall Corporation) using an Acroprep™ vacuum manifold (Pall Corporation) into a 96 well microwell plate. The clarified lysates were stored at −20° C. until needed.
A set of eight standard solutions ranging from 0 to 800 μg/ml protein was prepared from the supplied 2 mg/ml bovine serum albumin (BSA) stock solution. 10 μl of standard or cell lysate was added to duplicate wells of a flat-bottomed, 96-well microtitre plate. The reagent solution was prepared according to the kit instructions from 50 parts reagent A and 1 part reagent B. 200 μl of the final reagent was added to each well of the microtitre plate. The plate was mixed, covered and incubated at 37° C. for 30 minutes and absorbance read at 540 nm. A protein standard curve was constructed and used to determine the protein concentration of each individual cell lysate.
The heme oxygenase 1 (HO-1) protein concentration of each cell lysate was assayed using the Human Total HO-1/HMOX1 DuoSet IC assay (R&D Systems Europe Ltd) according to the manufacturer's instructions. This DuoSet IC ELISA ([…]) contains the basic components required for the development of sandwich ELISAs to measure HO-1/HMOX1 (heme oxygenase (decycling) 1 which is a human gene that encodes for the enzyme heme oxygenase 1)/HSP32 (heat shock protein 32 (Hsp32), also known as heme oxygenase 1 (HO-1)) in cell lysates. An immobilized capture antibody specific for HO-1/HMOX1/HSP32 binds both phosphorylated and unphosphorylated HO-1/HMOX1/HSP32. […]

[4] = system: myrosinase from Raphanus sativus var. longipinnatus (daikon); conditions: cited from earlier work; for reaction velocity, % of that with 500 μM ascorbic acid: 150 μM sinigrin; for effect on enzymic activity (in words): sinigrin as substrate, pH 6.0
[5] = system: rat basophilic leukemia (RBL-2H3) cells; conditions: cited from earlier work
[6] = system: primary human neonatal dermal fibroblast cells; assay: Cytotoxicity assay, ApoTox-Glo Triplex Assay (dead-cell protease, bis-AAF-R110)
[7] = system: myrosinase in partially purified extracts of six crucifers; conditions: cited from earlier work
[8] = system: enzymes from several other Brassica species; conditions: cited from earlier work
[9] = system: enzyme from Salix alba (white willow); conditions: cited from earlier work

C=CCN=C=S [Allyl isocyanate control, Allyl isothiocyanate]
HO-1 (pg HO-1 per μg protein) ([1]; 1 μM): 207 ± 13 pg HO-1 per μg protein
HO-1 (pg HO-1 per μg protein) ([1]; 2 μM): 243 ± 26 pg HO-1 per μg protein
production of HO-1 (in words) [1]: increase the production of HO-1
cytotoxicity to the fibroblast cells (in words) [2]: Neither myrosinase, nor the glucosinolate sinigrin, nor allyl isothiocyanate induce cytotoxicity on their own
Cytotoxicity (RFU × 1000) ([2]; human, 24 h, 0.168 mM): 66.71 ± 4.63 RFU × 1000
Normalised HO-1 (vehicle = 100) ([3]; dilution 1/50): 335.46 ± 54.80
Normalised HO-1 (vehicle = 100) ([3]; dilution 1/100): 383.74 ± 30.02
inhibition of activity (in words) ([4]; concentrations as high as 1 mM): did not significantly inhibit activity

S=C=Nc1cccc2ccccc12 [Alpha-naphthyl isothiocyanate (NITC), Alpha-naphthyl isothiocyanate]
HO-1 (pg HO-1 per μg protein) ([1]; 1 μM): 195 ± 25 pg HO-1 per μg protein
HO-1 (pg HO-1 per μg protein) ([1]; 2 μM): 191 ± 31 pg HO-1 per μg protein
production of HO-1 (in words) [1]: increase the production of HO-1

S=C=NCc1ccccc1 [Benzyl isothiocyanate (BITC), Benzyl isothiocyanate]
HO-1 (pg HO-1 per μg protein) ([1]; 1 μM): 381 ± 50 pg HO-1 per μg protein
HO-1 (pg HO-1 per μg protein) ([1]; 2 μM): 730 ± 170 pg HO-1 per μg protein
production of HO-1 (in words) [1]: increase the production of HO-1

S=C=NCCc1ccccc1 [Phenethyl isothiocyanate (PEITC), Phenethyl isothiocyanate]
HO-1 (pg HO-1 per μg protein) ([1]; 1 μM): 429 ± 49 pg HO-1 per μg protein
HO-1 (pg HO-1 per μg protein) ([1]; 2 μM): 668 ± 101 pg HO-1 per μg protein
production of HO-1 (in words) [1]: increase the production of HO-1

O=c1c(O)c(-c2ccc(O)c(O)c2)oc2cc(O)cc(O)c12 [Quercetin]
Nrf2 translocation (in words) ([5]; RBL-2H3 cells): translocate Nrf2 from cytoplasm into nucleus
mast cell degranulation and release of histamine (in words) [5]: inhibit mast cell degranulation and subsequent release of histamine

C=CCC(=NOS(=O)(=O)O)S[C@@H]1O[C@H](CO)[C@@H](O)[C@H](O)[C@H]1O [Sinigrin control, sinigrin (2-propenyl or allyl glucosinolate)]
Cytotoxicity (RFU × 1000) ([6]; 8.4 mM controls in complete medium, dilution 1/50, second series (untreated cells 18.63)): 80.94 ± 39.75 RFU × 1000
cytotoxicity to the fibroblast cells (in words) ([6]; extract without heat treatment, single components on their own at comparable levels): Neither myrosinase, nor the glucosinolate sinigrin, nor allyl isothiocyanate induce cytotoxicity on their own
Normalised HO-1 (vehicle = 100) ([3]; dilution 1/50): 168.32 ± 73.93
Normalised HO-1 (vehicle = 100) ([3]; dilution 1/100): 49.08 ± 12.98

C[S+]([O-])CCCCN=C=S (stereo not drawn) [Sulforaphane]
HO-1 (pg HO-1 per μg protein) ([1]; 1 μM): 280 ± 15 pg HO-1 per μg protein
HO-1 (pg HO-1 per μg protein) ([1]; 2 μM): 309 ± 45 pg HO-1 per μg protein
production of HO-1 (in words) [1]: increase the production of HO-1

O=C1O[C@H]([C@@H](O)CO)C(O)=C1O [ascorbic acid]
ascorbate concentrations for maximal activation of myrosinase [7]: 0.7 to 5.0 mM
activation by ascorbate [8]: 8-12 fold
activation by ascorbate [9]: 2-3 fold
reaction velocity, % of that with 500 μM ascorbic acid ([4]; 0.75 mM ascorbic acid): 90%
reaction velocity, % of that with 500 μM ascorbic acid ([4]; 1.0 mM ascorbic acid): 73%
effect on enzymic activity (in words) [4]: enzymic activity was enhanced greatly

O=S(=O)(O)O [sulphate]
effect on enzymic activity (in words) [4]: inhibited activity competitively
